{"source": "patent US6677298B2", "about": "“Regulators of PPARδ (β) and their use in the treatment of obesity and insulin resistance” (Bristol-Myers Squibb Company, priority 2000, dated 2004)", "key": {"PPARδ(β) LBD": {"target": "T1, PPARδ(β) LBD (Homo sapiens, UniProt Q03181)", "T1 construct": "His-tagged PPARδ(β) LBD (amino acid 139-441, Schmidt et al); made in house; host or cells: E. coli (crude lysate supernatant used)", "T1 sequence (Q03181 139-441)": "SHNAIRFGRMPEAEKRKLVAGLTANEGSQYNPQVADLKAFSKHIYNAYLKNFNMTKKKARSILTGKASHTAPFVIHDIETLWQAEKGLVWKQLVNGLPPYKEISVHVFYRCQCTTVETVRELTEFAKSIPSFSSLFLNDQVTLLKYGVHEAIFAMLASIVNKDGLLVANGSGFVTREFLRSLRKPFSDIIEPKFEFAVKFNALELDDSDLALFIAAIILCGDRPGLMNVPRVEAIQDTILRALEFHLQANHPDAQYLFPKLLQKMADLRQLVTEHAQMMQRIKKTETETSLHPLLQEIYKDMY", "assay": "In vitro PPARδ(β) LBD ligand binding assay (SPA, 3H-labeled ligand displacement)", "details": "50 nM 3H-labeled ligand, His-tagged LBD bacterial lysate, SPA beads, 1 hour room temperature; read-out: IC50, half maximal inhibition/displacement of 3H labeled PPARδ(β) ligand binding to PPARδ(β) LBD", "text": "FIG. 3: Illustrates results from a PPARδ(β) ligand binding assay.\nThis invention also provides methods for screening and identification of compounds that bind to and/or regulate PPARδ(β). The PPARδ(β) ligand binding domain (LBD) from a mammalian species including human and/or a non-mammalian species such as frog (Xenopus), is used for screening for compounds that bind to the LBD (Schmidt et al, Mol. Endocrinology, 6:1634-1641, 1992; Evans et al., Sequence XR-4 in U.S. Pat. No. 5,571,696, 1996; Berger et al. J. Biol. Chem., 274:6718-6725, 1999). […]\nA single E.coli colony containing His-tagged PPARδ(β) LBD (amino acid 139-441, Schmidt et al., Mol. Endocrinology, 6:1634-1641, 1992) expressing plasmid DNA is mixed with 3 ml Luria broth (LB) supplemented with 100 μg/ml antibiotic ampicilin and grown at 37° C. […] The plates are then read on Packard top-count beta-scintillation counter (1 minute/well). […] In this binding assay any test compound may replace L-165041 and the binding affinity for PPARδ(β) is easily determined."}, "Gal4/PPARδ(β)": {"target": "T2, Gal4/PPARδ(β) (Homo sapiens, UniProt Q03181)", "T2 construct": "human PPARδ(β) LBD (amino acid 139-441); {Schmidt et al; expressed in transfected cells; host or cells: CHO cells, stably transfected", "T2 sequence (P04386 1-144 partner limits assumed, one chain of several)": "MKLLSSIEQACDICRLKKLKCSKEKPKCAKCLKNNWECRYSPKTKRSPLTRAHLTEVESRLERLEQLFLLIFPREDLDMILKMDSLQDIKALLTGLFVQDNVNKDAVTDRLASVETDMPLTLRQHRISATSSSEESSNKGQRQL", "assay": "Cell based transactivation assay, δ agonist mode (Gal4 RE driven SEAP reporter in CHO cells)", "details": "CHO cells stably transfected with Gal4/PPARδ(β); 3.16-31600 nM; FIG. 4"}}, "note": "pIC50: −log10 of the molar value. “Also recorded” adds a separate entry of the source.", "data": [{"molecule": "CCCc1c(OCCCOc2ccc(OCC(=O)O)cc2)ccc(C(C)=O)c1O", "note": "[Compound L-165041]", "values": [{"measurement": "pIC50", "setting": "PPARδ(β) LBD", "value": 7.28}, {"measurement": "Induction of SEAP reporter gene activity", "setting": "Gal4/PPARδ(β)", "value": "dose dependent activation of reporter gene SEAP function; also recorded: dose dependently induced reporter gene activity"}]}]}
